The values below are quoted from earlier work in US9181529B2, “Titration of differentiation medium components” (Cellular Dynamics International, Inc., priority 2010, dated 2015).

One data set concerns ROCK2. The settings on record: ATP-competitive, read-out: IC50 ROCK1/ROCK2.
Data set [1] concerns pluripotent stem cell-derived cardiomyocytes.

As to `C[C@@H](N)[C@H]1CC[C@H](C(=O)Nc2ccncc2)CC1` [Y-27632], the IC50 in the data set on ROCK2 is […].
Take `COc1ccc([C@@H]2Sc3ccccc3N(CCN(C)C)C(=O)[C@@H]2OC(C)=O)cc1` [diltiazem]: the contractile activity result in data set [1] was “inhibits contractile activity in a dose-dependent manner”.
With `CC(C)NCC(O)c1ccc(O)c(O)c1` (stereo not shown) [isoprenaline], in data set [1], the chronotropic effect entry is given as “positive chronotropic effect”.
Regarding `CNC[C@H](O)c1cccc(O)c1` [phenylephrine], in data set [1], the chronotropic effect result is “positive chronotropic effect”.
